Experimental data taken from patent US20040224981A1, “Antibacterial methods and compositions” (priority 2003, published 2004).
In brackets after ≈: the same amount, converted by molar mass. Counter-ions that a name gives are not always drawn. Like-named read-outs stand apart in the source and are kept apart here.

What was measured:
[1] = test system: S. aureus RN4220 (pYH4-MRS); experiment: Mode of action: MIC with MRS over-production; format: cell-based
Procedure: The strain expresses high levels of MRS upon the addition of 0.01 μg/mL of anyhdrotetracycline.

[2] = test system: E. faecalis; experiment: MIC against E. faecalis; format: cell-based; conditions: Enterococcus faecalis, Table 8
Procedure: The MRS inhibitor 4 alone and in combination with mupirocin (mupirocin salt and 1:1 combination) were tested against a collection of Gram-positive pathogens.
(§1) MRSi compound 5 alone and in combination with mupirocin was tested recent clinical isolates of E. faecalis (n=28) and E. faecium (n=23). Both the acetate salt and mupirocinate salts of MRSi compound 5 maintained potent activity against vancomycin-susceptible and—resistant enterococci (Tables 8, 9, and 10).

[3] = test system: E. faecium; experiment: MIC against E. faecium; format: cell-based; conditions: Enterococcus faecium, ATCC33667
Procedure: as §1

[4] = test system: S. aureus; experiment: MIC against S. aureus strains and clinical isolates (broth microdilution); format: cell-based, Staphylococcus aureus
Procedure: were tested against a collection of clinical isolates of S. aureus including strains that were multi-resistant to mupirocin and to other agents such as gentamicin and oxacillin.
The acetate and mupirocin salts of the MRS inhibitor compound 5 were tested against a collection of both low and high-level mupirocin resistant clinical isolates of S. aureus (Table 6).
The bacterial strains were tested for susceptibility to mupirocin and MRSi compound 2 using the broth microdilution method in accordance with NCCLS guideline to determine their MICs.
Briefly, the MIC and checkerboard titration assays were performed with strains in microtiter trays with cation-supplemented Mueller-Hinton broth (Difco). Inocula were prepared by suspending growth from blood agar plates in sterile saline to a density equivalent to that of a 0.5 McFarland standard and were diluted […] to produce a final inoculum of 5×10^5 CFU/ml. The trays were incubated aerobically overnight. Standard quality control strains were included with each run. Fractional inhibitory concentrations (FICs) were calculated as the MIC of drug A or B in combination/MIC of drug A or B alone, and the FIC index was obtained by adding the two FICs. FIC indices were interpreted as synergistic if the values were ≦0.5, additive or indifferent if the values were >0.5 to 4, and antagonistic if the values were >4.0.

[5] = test system: S. aureus ATCC 29213 and 31-1334; experiment: Selection of spontaneous resistant mutants (mutation frequency); format: cell-based, Staphylococcus aureus
Procedure: Approximately, 10^9 bacteria were plated onto Mueller-Hinton agar supplemented with 10% horse blood and containing various concentrations of the test compounds alone and in combination. After 24 and 48 hours of incubation at 35° C., the bacterial colonies were counted and the frequencies of mutation were determined relative to the total viable count of organisms that were plated. Resistant clones were re-plated once on plates containing the same concentration of agent that was used for the selection.

[6] = test system: S. aureus, coagulase-negative staphylococci and S. pyogenes strains; experiment: Serial passage, whole panel of 19 isolates; format: cell-based; conditions: after 20 passages; observed with five of the 19 organisms tested
Procedure: MRSi compound 5 (acetate salt), mupirocin and MRSi compound 5/mupirocin 1:1 combination were tested for development of resistance following serial passage using 19 isolates, including S. aureus, coagulase-negative staphylococci and S. pyogenes strains.

[7] = S. aureus RN4220 (pYH4-MRS), +aTC (MRS over-expression)
[8] = ATCC 51299 / VRE, E. faecalis ATCC 51299 (VRE)

`CO[C@@H]1[C@@H](OC(N)=O)[C@@H](O)[C@H](Oc2ccc3c(O)c(NC(=O)c4ccc(O)c(CC=C(C)C)c4)c(=O)oc3c2C)OC1(C)C` [Novobiocin] gave an MIC [1, 7] of 0.25 µg/mL (≈ 0.408 µM) and an MIC ([1]; Staphylococcus aureus) of 0.25 µg/mL (≈ 0.408 µM).
`CN[C@H](CC(C)C)C(=O)N[C@H]1C(=O)N[C@@H](CC(N)=O)C(=O)N[C@H]2C(=O)N[C@H]3C(=O)N[C@H](C(=O)N[C@H](C(=O)O)c4cc(O)cc(O)c4-c4cc3ccc4O)[C@H](O)c3ccc(c(Cl)c3)Oc3cc2cc(c3O[C@@H]2O[C@H](CO)[C@@H](O)[C@H](O)[C@H]2O[C@H]2C[C@](C)(N)[C@H](O)[C@H](C)O2)Oc2ccc(cc2Cl)[C@H]1O` [Vancomycin, reference compound] showed an MIC [2, 8] of 4 µg/mL, an MIC ([2]; E. faecalis 1) of 0.12 µg/mL and an MIC ([2]; E. faecalis 7) of 0.5 µg/mL. For the same molecule, the MIC [3] was 0.5 µg/mL, the MIC [1, 7] was 0.5 µg/mL (≈ 0.345 µM) and the MIC ([1]; Staphylococcus aureus) was 0.5 µg/mL (≈ 0.345 µM).
In the case of `Brc1cc(Br)c2c(c1)C(NCCCNc1nc3ncccc3[nH]1)CCN2` (stereo not shown) [MRSi cmpd 2, N-(6,8-Dibromo-1,2,3,4-tetrahydroquinolin-4-yl)-N′-(1H-imidazo[4,5-b]pyridine-2-yl)-propane-1,3-diamine dihydrochloride], the MIC ([4]; Staphylococcus aureus, ATCC43300, S. aureus ATCC 43300 (ORSA), read-out: MIC) is reported as 0.25 µg/mL, the MIC ([4]; Staphylococcus aureus, NRS 1 / VISA, S. aureus NRS1 (VISA)) is reported as 0.25 µg/mL and the MIC ([4]; Staphylococcus aureus, NRS107, S. aureus NRS107 (HL Mup rest.), read-out: MIC) is reported as 0.06 µg/mL. It also gave an MIC ([4]; Staphylococcus aureus, S. aureus 10-420 (LL Mup. Rest.), read-out: MIC) of 0.25 µg/mL, an MIC ([4]; Staphylococcus aureus, S. aureus 14-354 (LL Mup. Rest.), read-out: MIC) of 0.25 µg/mL and an MIC ([4]; Staphylococcus aureus, S. aureus 25-670 (HL Mup. Rest.), read-out: MIC) of 0.25 µg/mL. For the same molecule, the MIC ([4]; Staphylococcus aureus, S. aureus 31-1334 (LL Mup Rest.), read-out: MIC) was 0.25 µg/mL, the MIC ([4]; Staphylococcus aureus, S. aureus 36-1298 (LL Mup. Rest.), read-out: MIC) was 0.06 µg/mL and the MIC ([4]; Staphylococcus aureus, S. aureus 87-2797 (HL Mup. Rest.), read-out: MIC) was 0.25 µg/mL. It also gave an MIC ([4]; Staphylococcus aureus, S. aureus 87-2797 (Mup. Susc.), read-out: MIC) of 0.25 µg/mL, an MIC ([4]; Staphylococcus aureus, S. aureus 101-100 (Mup. Susc.), read-out: MIC) of 0.12 µg/mL and an MIC ([4]; Staphylococcus aureus, S. aureus LZ1 (HL Mup rest.), read-out: MIC) of 0.12 µg/mL. The MIC ([4]; Staphylococcus aureus, S. aureus LZ6 (HL Mup rest.), read-out: MIC) was 0.25 µg/mL, the MIC ([4]; Staphylococcus aureus, S. aureus LZ8 (LL Mup. Rest.), read-out: MIC) was 0.25 µg/mL and the MIC ([4]; Staphylococcus aureus, S. aureus LZ9, read-out: MIC) was 0.25 µg/mL. For the same molecule, the MIC ([4]; Staphylococcus aureus, S. aureus LZ10, read-out: MIC) was 0.25 µg/mL, the MIC ([4]; Staphylococcus aureus, S. aureus Miles Hall, read-out: MIC) was 0.12 µg/mL and the MIC ([4]; Staphylococcus aureus, S. aureus Oxford, read-out: MIC) was 0.12 µg/mL. The MIC90 ([4]; Staphylococcus aureus, all S. aureus strains of Table 1, read-out: MIC 90) was 0.25 µg/mL, the MIC ([4]; Table 12, S. aureus 25-670, high level mupirocin-resistant, agent alone) was 0.5 8 g/mL and the “MIC Range” value ([4]; all S. aureus strains of Table 1 (mupirocin-susceptible and -resistant)) was 0.06 to 0.25 µg/mL. The MIC [2, 8] was 0.03 µg/mL, the MIC ([2]; E. faecalis 1) was 0.015 µg/mL and the MIC ([2]; E. faecalis 7) was 0.06 µg/mL. For the same molecule, the MIC [3] was at most 0.004 µg/mL, the “Mutation Frequency (48 hours)” value ([5]; S. aureus 31-1334 (low level mupirocin-resistant), selecting concentration 2 x MIC) was 3.3 × 10^−7 and the “Mutation Frequency (48 hours)” value ([5]; S. aureus 31-1334 (low level mupirocin-resistant), selecting concentration 4 x MIC) was 6.8 × 10^−8. For the same molecule, the “Mutation Frequency (48 hours)” value ([5]; S. aureus 31-1334 (low level mupirocin-resistant), selecting concentration 8 x MIC) was 1.9 × 10^−8, the “Mutation Frequency (48 hours)” value ([5]; S. aureus ATCC 29213 (mupirocin susceptible), selecting concentration 2 x MIC) was 1.01 × 10^−7 and the “Mutation Frequency (48 hours)” value ([5]; S. aureus ATCC 29213 (mupirocin susceptible), selecting concentration 4 x MIC) was 3.14 × 10^−8. For the same molecule, the “Mutation Frequency (48 hours)” value ([5]; S. aureus ATCC 29213 (mupirocin susceptible), selecting concentration 8 x MIC) was 2.07 × 10^−8.
`C=C(F)c1sc(CNCCCNc2cc(=O)c3ccccc3[nH]2)c(C)c1Br` [MRSi Cmpd 5, N-(4-bromo-5-(1-fluorovinyl)-3-methylthiophen-2-ylmethyl)-N′-(1H-quinolin-4-one)propane-1,3-diamine] was tested, and the “increase in MIC on over-expression of MRS” value ([1]; +aTC vs −aTC, 0.01 μg/mL anhydrotetracycline) was 8 fold, the MIC [1, 7] was 1 µg/mL (≈ 2.22 µM) and the MIC ([1]; S. aureus RN4220 (pYH4-MRS), −aTC (no anhydrotetracycline)) was 0.12 µg/mL (≈ 0.266 µM). The “MICs of the most resistant isolates that could be selected” value [6] was 16 µg/mL.
